Measurements published in patent US10344017B2, “Pyrrolcarboxamide derivatives for the inhibition of ERK5” (CANCER RESEARCH TECHNOLOGY LIMITED, priority 2014, dated 2019).
Where two headings read alike, the source gives them in different places.

Experiments:
ERK5 = target: T1, ERK5 (Homo sapiens, UniProt Q13164); assay: ERK5 IMAP assay (fluorescence polarisation); type: biochemical
T1 construct: made in house

[1] = tested on: HA-ERK5-ΔP493 (MEK5D-activated, MEF2D-Gal4/Gal4-Luc reporter) in HEK293T cells; assay: Truncated dual-luciferase reporter assay, HEK293T forward transfection; type: cell-based; details: Homo sapiens, HEK-293T, average where more than one data point, read-out: Truncated ERK 5 Reporter Assay
Procedure: Truncated Dual-Luciferase Reporter Assay
HEK293T and HeLa Forward Transfection
Constitutively-active, EGFP-tagged MEK5 (EGFP-MEK5D; 0.5 μg/μl), an EGFP-tagged construct containing no MEK5D (EGFP-C3; 0.5 μg/μl), and HA-tagged ERK5 with C-terminal truncation (HA-ERK5-ΔP493; 0.51 μg/μl) were diluted separately in sterile distilled water. Plasmid DNA and Lipofectamine 2000 (Invitrogen) were separately diluted in Opti-MEM growth media (reduced serum medium, Invitrogen), and incubated at room temperature for 5 min. Plasmid DNA (Tube A) and Lipofectamine 2000 (Tube B) were then combined and incubated for 20 min at room temperature to complex. Cells were then transfected by addition of 16 μl of the respective transfection mixture: 3 wells with EGFP-C3-containing (control) and 21 wells with MEK5D-containing transfection mixture (final volume, 100 μl). Cells were subsequently incubated for 4 h at 37° prior to addition of potential ERK5-inhibitory compounds.
Addition of Compounds to ERK5-Transfected HEK293T or HeLa Cells
Potential ERK5-inhibitory compounds were prepared as a 2× solution by addition of 2 μl compound (or DMSO as control) to 1 ml standard culture medium. Compounds were tested in triplicate at a concentration range of 0.003 μM, 0.01 μM, 0.03 μM, 0.1 μM, 0.3 μM and 1 μM (or 0.03 μM, 0.1 μM, 0.3 μM, 1 μM, 3 μM and 10 μM for BIX02189) by addition of 100 μl 2× solution to 100 μl transfected cells (final DMSO, 0.1% v/v). Cells were incubated for 24 h at 37° C.
Cell Lysis and Luciferase Quantification
After 24 h incubation in the absence (control) or presence of potential inhibitor, the culture medium was aspirated and cells lysed in 20 μl 1× passive lysis buffer (Dual-Luciferase Reporter Assay System, Promega) for a minimum of 15 min with agitation. Lysates were further processed immediately or stored at −80° C. Cellular inhibition of ERK5 was quantified using the Dual-Luciferase Reporter Assay System (Promega). Luciferase assay buffer/Luciferase assay substrate and Stop and Glo assay buffer/Stop and Glo substrate were prepared according to the manufacturer's instructions. Luciferase reagent (50 μl/well) was added immediately before luminescence detection using a FLUOstar Omega plate reader (BMG Labtech). Stop and Glo reagent (50 μl/well) was subsequently added, and the Renilla luciferase signal (transfection efficiency control) quantified.
The ERK5-specific signalling activity was calculated by subtraction of the EGFP-C3 luciferase signal from the EGFP-MEK5D-induced luminescence. Luminescence in the absence of potential ERK5 inhibitor (DMSO control) was taken as 100% ERK5 activity. […] Unless stated otherwise, data are mean±standard deviation of three independent experiments.

[2] = tested on: ERK5 (HA-ERK5 wt activated by EGFP-MEK5D, MEF2D-Gal4/Gal4-Luc reporter) in HEK293 cells; assay: Dual-luciferase reporter assay (ERK5 reporter), reverse-transfected HEK293 cells; details: Homo sapiens, HEK293, read-out: ERK 5 Reporter Assay
Procedure: Trypsinizing of Adherent Cell Colonies
Cells were regularly passaged in order to maintain optimum colony sizes on plates. In order to do this, and to harvest cells for use in the dual-luciferase reporter assay, adherent cells were lifted from tissue culture dishes. Cell media was removed via aspiration, and the cell monolayer was washed with phosphate buffered saline (PBS) solution (10 mL), which was then aspirated.
Reverse Transfection of HEK293 Cells
Preparation of EGFP Control (C3) Working Solution (for 1×96 Well Plate)
Preparation of HEK293 Cells for Reverse Transfection
Trypsinized HEK293 cells were re-suspended in 19 mL of fresh cell media and counted using haemocytometry. Cells were then diluted with fresh cell media to achieve a final cell concentration of 2×10^5 cells/mL. 1237.5 μL and 7425 μL of this cell media was added to the C3 and 5D working solutions respectively. 100 μL of the transfected cells were then aliquoted into the appropriate wells in a 96-well opaque sided tissue culture plate, and incubated at 37° C. for 6 h.
Addition of Compounds to HEK293 Cells
4 compounds was assayed per 96-well plate. For each compound, 1 mL of growth media was added to eight 1.5 mL Eppendorf® tubes. 6 μL of DMSO was added to two tubes for C3 and blank 5D wells, and 6 μL of the relevant compound stock solution was added to the 6 remaining tubes. […] Solutions of drug in media were thoroughly mixed, and 100 μL of the relevant compound was transferred (in triplicate) to the 96-well plate containing transfected HEK293 cells using an electronic multichannel pipette with variable tip spacing. Sealed plates were incubated at 37° C. for 24 h. Final compound concentrations were as follows; 30 μM, 10 μM, 3 μM, 1 μM and 0.3 μM.
15 mL of 1× passive lysis buffer (PLB) was prepared using 5×PLB (Dual-Luciferase Reporter Assay System, Promega® E1960), diluting with H2O. Assay plates prepared were removed from the incubator and the growth media removed by aspiration.

[3] = average (e.g. geometric mean) where more than one data point, read-out: ERK5 IC50

T1 sequence (Q13164 whole entry): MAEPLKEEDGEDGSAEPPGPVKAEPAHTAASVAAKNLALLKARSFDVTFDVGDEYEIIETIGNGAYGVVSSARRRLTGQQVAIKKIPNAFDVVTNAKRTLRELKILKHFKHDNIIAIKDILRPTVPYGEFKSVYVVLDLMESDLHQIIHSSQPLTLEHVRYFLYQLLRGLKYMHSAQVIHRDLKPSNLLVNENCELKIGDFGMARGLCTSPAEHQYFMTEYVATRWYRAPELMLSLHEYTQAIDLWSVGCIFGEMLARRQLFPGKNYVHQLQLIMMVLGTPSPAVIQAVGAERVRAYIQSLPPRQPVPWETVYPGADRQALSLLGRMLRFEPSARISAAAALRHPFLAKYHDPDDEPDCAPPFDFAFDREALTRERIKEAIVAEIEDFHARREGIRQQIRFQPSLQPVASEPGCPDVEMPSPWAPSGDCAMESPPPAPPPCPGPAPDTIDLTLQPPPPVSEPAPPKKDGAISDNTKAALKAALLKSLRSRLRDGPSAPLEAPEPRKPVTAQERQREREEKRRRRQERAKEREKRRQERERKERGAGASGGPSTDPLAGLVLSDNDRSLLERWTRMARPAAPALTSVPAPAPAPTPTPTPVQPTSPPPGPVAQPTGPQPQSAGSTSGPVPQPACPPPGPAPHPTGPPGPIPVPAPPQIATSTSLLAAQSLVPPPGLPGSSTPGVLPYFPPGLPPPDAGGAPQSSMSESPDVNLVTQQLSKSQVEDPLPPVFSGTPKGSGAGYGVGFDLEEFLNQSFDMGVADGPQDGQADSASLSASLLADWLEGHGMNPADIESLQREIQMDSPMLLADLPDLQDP

CN(C)CCNc1ncc(NC(=O)c2cc(C(=O)c3c(Cl)ccc(Cl)c3F)c[nH]2)cn1 [Example 99, 4-(3,6-Dichloro-2-fluorobenzoyl)-N-(2-((2-(dimethylamino)ethyl)amino)pyrimidin-5-yl)-1H-pyrrole-2-carboxamide]
IC50 (ERK5; [3]): 0.0153 µM
IC50 [1]: 0.122 µM

O=C(Nc1cnc(NCCN2CCCC2)nc1)c1cc(C(=O)c2c(Cl)ccc(Cl)c2F)c[nH]1 [Example 102, 4-(3,6-Dichloro-2-fluorobenzoyl)-N-(2-((2-(pyrrolidin-1-yl)ethyl)amino)pyrimidin-5-yl)-1H-pyrrole-2-carboxamide]
IC50 (ERK5; [3]): 0.0166 µM
IC50 [1]: 0.085 µM

O=C(Nc1cnc(NCCN2CCOCC2)nc1)c1cc(C(=O)c2c(Cl)ccc(Cl)c2F)c[nH]1 [Example 103, 4-(3,6-Dichloro-2-fluorobenzoyl)-N-(2-((2-morpholinoethyl)amino)pyrimidin-5-yl)-1H-pyrrole-2-carboxamide]
IC50 (ERK5; [3]): 0.0368 µM
IC50 [1]: 0.135 µM

O=C(Nc1cnc(NCCN2CCCCC2)nc1)c1cc(C(=O)c2c(Cl)ccc(Cl)c2F)c[nH]1 [Example 104, 4-(3,6-Dichloro-2-fluorobenzoyl)-N-(2-((2-(piperidin-1-yl)ethyl)amino)pyrimidin-5-yl)-1H-pyrrole-2-carboxamide]
IC50 (ERK5; [3]): 0.0104 µM
IC50 [1]: 0.09 µM

O=C(Nc1ccc(CN2CCOCC2)nc1)c1cc(C(=O)c2c(Cl)ccc(Cl)c2F)c[nH]1 [Example 115, 4-(3,6-Dichloro-2-fluorobenzoyl)-N-(6-(morpholinomethyl)pyridin-3-yl)-1H-pyrrole-2-carboxamide]
IC50 (ERK5; [3]): 0.0265 µM
IC50 [1]: 0.031 µM

O=C(NC1CCOCC1)c1cc(C(=O)c2c(F)cccc2F)c[nH]1 [Example 124, 4-(2,6-Difluorobenzoyl)-N-(tetrahydro-2H-pyran-4-yl)-1H-pyrrole-2-carboxamide]
IC50 (ERK5; [3]): 2.25 µM
IC50 [2]: 23.3 µM

O=C(NC1CCNCC1)c1cc(C(=O)c2c(F)cccc2F)c[nH]1 [Example 126, 4-(2,6-Difluorobenzoyl)-N-(piperidin-4-yl)-1H-pyrrole-2-carboxamide]
IC50 (ERK5; [3]): 1.26 µM
IC50 [2]: 18.3 µM

CN1CCC(NC(=O)c2cc(C(=O)c3c(F)cccc3F)c[nH]2)CC1 [Example 129, 4-(2,6-Difluorobenzoyl)-N-(1-methylpiperidin-4-yl)-1H-pyrrole-2-carboxamide]
IC50 (ERK5; [3]): 1.13 µM
IC50 [2]: 6 µM

O=C(Nc1cccnc1)c1cc(C(=O)c2cccc(Cl)c2Cl)c[nH]1 [Example 159, 4-(2,3-Dichlorobenzoyl)-N-(pyridin-3-yl)-1H-pyrrole-2-carboxamide]
IC50 (ERK5; [3]): 1.49 µM
IC50 [2]: 24 µM

O=C(NC1CCNCC1)c1cc(C(=O)c2cccc(Cl)c2Cl)c[nH]1 [Example 160, 4-(2,3-Dichlorobenzoyl)-N-(piperidin-4-yl)-1H-pyrrole-2-carboxamide]
IC50 (ERK5; [3]): 1.71 µM
IC50 [2]: 30 µM

O=C(NC1CCNCC1)c1cc(C(=O)c2c(F)cccc2C(F)(F)F)c[nH]1 [Example 161, 4-(2-Fluoro-6-(trifluoromethyl)benzoyl)-N-(piperidin-4-yl)-1H-pyrrole-2-carboxamide]
IC50 (ERK5; [3]): 2.41 µM
IC50 [2]: 16.7 µM

O=C(Nc1cncnc1)c1cc(C(=O)c2c(Cl)ccc(Cl)c2F)c[nH]1 [Example 173, 4-(3,6-Dichloro-2-fluorobenzoyl)-N-(pyrimidin-5-yl)-1H-pyrrole-2-carboxamide]
IC50 (ERK5; [3]): 0.316 µM
IC50 [2]: 0.508 µM

O=C(Nc1ccncc1)c1cc(C(=O)c2c(F)cccc2C(F)(F)F)c[nH]1 [Example 183, 4-(2-Fluoro-6-(trifluoromethyl)benzoyl)-N-(pyridin-4-yl)-1H-pyrrole-2-carboxamide]
IC50 (ERK5; [3]): 1.88 µM
IC50 [2]: 7.67 µM

O=C(Nc1cccnc1)c1cc(C(=O)c2c(F)cccc2C(F)(F)F)c[nH]1 [Example 184, 4-(2-Fluoro-6-(trifluoromethyl)benzoyl)-N-(pyridin-3-yl)-1H-pyrrole-2-carboxamide]
IC50 (ERK5; [3]): 5.68 µM
IC50 [2]: 10.3 µM

O=C(Nc1ccncc1)c1cc(C(=O)c2c(F)cccc2Cl)c[nH]1 [Example 187, 4-(2-Chloro-6-fluorobenzoyl)-N-(pyridin-4-yl)-1H-pyrrole-2-carboxamide]
IC50 (ERK5): 0.602 µM
IC50 [2]: 2.33 µM

O=C(Nc1ccncc1)c1cc(C(=O)c2c(F)cccc2Br)c[nH]1 [Example 189, 4-(2-Bromo-6-fluorobenzoyl)-N-(pyridin-4-yl)-1H-pyrrole-2-carboxamide]
IC50 (ERK5): 0.676 µM
IC50 [2]: 4 µM

Cc1cccc(F)c1C(=O)c1c[nH]c(C(=O)NC2CCNCC2)c1 [Example 191, 4-(2-Fluoro-6-methylbenzoyl)-N-(piperidin-4-yl)-1H-pyrrole-2-carboxamide]
IC50 (ERK5; [3]): 1.4 µM
IC50 [2]: 19.5 µM

CN1CCC(NC(=O)c2cc(C(=O)c3c(F)cccc3Cl)c[nH]2)CC1 [Example 192, 4-(2-Chloro-6-fluorobenzoyl)-N-(1-methylpiperidin-4-yl)-1H-pyrrole-2-carboxamide]
IC50 (ERK5; [3]): 0.199 µM
IC50 [2]: 3.01 µM

O=C(NC1CCNCC1)c1cc(C(=O)c2c(F)cccc2Br)c[nH]1 [Example 197, 4-(2-Bromo-6-fluorobenzoyl)-N-(piperidin-4-yl)-1H-pyrrole-2-carboxamide]
IC50 (ERK5; [3]): 0.386 µM
IC50 [2]: 22 µM

CN1CCC(NC(=O)c2cc(C(=O)c3c(F)ccc(Cl)c3F)c[nH]2)CC1 [Example 213, 4-(3-Chloro-2,6-difluorobenzoyl)-N-(1-methylpiperidin-4-yl)-1H-pyrrole-2-carboxamide]
IC50 (ERK5; [3]): 0.156 µM
IC50 [2]: 3.51 µM

O=C(Nc1cccnc1)c1cc(C(=O)c2cc(F)ccc2F)c[nH]1 [Example 225, 4-(2,5-Difluorobenzoyl)-N-(pyridin-3-yl)-1H-pyrrole-2-carboxamide]
IC50 (ERK5; [3]): 6.03 µM
IC50 [2]: 4.77 µM

COc1ccc(Cl)c(C(=O)c2c[nH]c(C(=O)Nc3ccc(CC4CCN(C)CC4)nc3)c2)c1F [Example 236, 4-(6-Chloro-2-fluoro-3-methoxybenzoyl)-N-(6-((1-methylpiperidin-4-yl)methyl)pyridin-3-yl)-1H-pyrrole-2-carboxamide]
IC50 (ERK5; [3]): 0.0102 µM
IC50 [1]: 0.096 µM

COc1ccc(Cl)c(C(=O)c2c[nH]c(C(=O)Nc3cnc(CN4CCN(C)CC4)nc3)c2)c1F [Example 245, 4-(6-Chloro-2-fluoro-3-methoxybenzoyl)-N-(2-((4-methylpiperazin-1-yl)methyl)pyrimidin-5-yl)-1H-pyrrole-2-carboxamide]
IC50 (ERK5; [3]): 0.013 µM
IC50 [1]: 0.461 µM

COc1ccc(Cl)c(C(=O)c2c[nH]c(C(=O)Nc3ccc(CN4CCN(C)CC4)nc3)c2)c1F [Example 246, 4-(6-Chloro-2-fluoro-3-methoxybenzoyl)-N-(6-((4-methylpiperazin-1-yl)methyl)pyridin-3-yl)-1H-pyrrole-2-carboxamide]
IC50 (ERK5; [3]): 0.0085 µM
IC50 [1]: 0.069 µM

COc1ccc(Cl)c(C(=O)c2c[nH]c(C(=O)Nc3cnc(CN4CCNCC4)nc3)c2)c1F [Example 250, 4-(6-Chloro-2-fluoro-3-methoxybenzoyl)-N-(2-(piperazin-1-ylmethyl)pyrimidin-5-yl)-1H-pyrrole-2-carboxamide]
IC50 (ERK5; [3]): 0.0158 µM
IC50 [1]: 0.573 µM

COc1ccc(Cl)c(C(=O)c2c[nH]c(C(=O)Nc3cnc(CC4CCNCC4)nc3)c2)c1F [Example 252, 4-(6-Chloro-2-fluoro-3-methoxybenzoyl)-N-(2-(piperidin-4-ylmethyl)pyrimidin-5-yl)-1H-pyrrole-2-carboxamide]
IC50 (ERK5; [3]): 0.0122 µM
IC50 [1]: 0.627 µM

O=C(Nc1cnc(CC2CCNCC2)nc1)c1cc(C(=O)c2c(Cl)ccc(Cl)c2F)c[nH]1 [Example 253, 4-(3,6-Dichloro-2-fluorobenzoyl)-N-(2-(piperidin-4-ylmethyl)pyrimidin-5-yl)-1H-pyrrole-2-carboxamide]
IC50 (ERK5; [3]): 0.0075 µM
IC50 [1]: 0.239 µM
